The source of these data is patent publication US20180280450A1, “METHOD OF PROMOTING IMMUNE HEALTH USING THE WATER-SOLUBLE COMPONENT FROM GENUS EUGLENA ORGANISM” (KEMIN INDUSTRIES, INC., priority 2017, published 2018).

One data set relates to human immune cells. The data set can be described thus: In vitro bioassay screening of Test Products in cell cultures of human immune cells (overall summary). Particulars: sample preparation after 0.2 micron filtration. It is filed as cell-based. As to the method:
Bioassay screening of nutraceutical ingredients and one blend were performed to evaluate their potency and mechanisms of action. The screening involved testing in cell cultures involving human immune cells. As part of this process, selected immune ingredients currently on the market were compared for similarities and differences of mechanisms of action, as well as efficacy (active dose comparison). Eight Test Products labeled Test Products A-H, as noted in the various tables and explained below were employed in this study.
The water-soluble Test Products were prepared by taking 0.25 grams of powder into 5 mL of physiological saline. The suspension was incubated under gentle agitation for one hour, after which any remaining solids were removed by centrifugation. Insoluble, particulate Test Products were prepared by taking 0.5 grams of powder into 3 mL of physiological saline. One (1) mL ceramic beads (200 uM zirconium) were added, and bead milling performed by 10 cycles of repeated 60-second pulsing (vortex high speed, 60 one (1) second pulses) with placement of samples in an ice-bath between cycles. Subsequently, seven (7) mL of physiological saline was then added to bring the samples to a 50 mg/mL final concentration. […]

Another data set can be described thus: Solubility in water. The format is physicochemical.
The test system of data set [1] is CD69/CD25 double positive lymphocytes. The data set can be described thus: CD69/CD25 double positive lymphocytes by flow cytometry in PBMC cultures. The format is cell-based, human. Particulars: 24-hour PBMC cultures, dose not specified. The method, then:
(§1) Human peripheral blood mononuclear cell (PBMC) cultures were used for this testing. A set of cultures was left untreated as negative control cultures for immune activation. Triplicate sets of cultures were treated with serial dilutions of the test product. The inflammatory bacterial lipopolysaccharide LPS from E. coli was used as a positive control for activation. The cultures were incubated for 24 hours, after which the cells and the culture supernatants were harvested and used to monitor the reactions in each culture. […]
(§2) The cells were stained with a combination of monoclonal antibodies to monitor activation status, and analyzed by multi-parameter flow cytometry, using an acoustic dual-laser Attune® flow cytometer. […]
(§3) Immune cell activation was analyzed after the cell viability testing. […] The cells were stained with a combination of monoclonal antibodies to monitor activation, and analyzed by multi-parameter flow cytometry, using an acoustic dual laser Attune® flow cytometer. […]
(§4) The cellular staining for activation, performed using a fluorescently labelled monoclonal antibody to the CD69 and CD25 activation markers, allowed researchers to measure cellular activation by fluorescence intensity. […]

Another data set deals with monocytes. Briefly: Immune cell activation by flow cytometry (CD69) on monocytes in PBMC cultures. It is filed as cell-based, human. Particulars: dose not specified. As to the method: as §1, §2, §3, §4
A further data set relates to non-T non-NK lymphocytes. The data set can be described thus: Immune cell activation by flow cytometry (CD69/CD25) on non-T non-NK lymphocytes in PBMC cultures. The format is cell-based, human. The conditions noted are these: 24-hour PBMC cultures. As to the method: as §1, §2, §3, §4
In the next data set the test system is T-cells. Briefly: Immune cell activation by flow cytometry (CD69/CD25) on T-cells in PBMC cultures. It is filed as cell-based, human. The conditions noted are these: 24-hour PBMC cultures. The method, then:
as §1, §2, §3, §4

Consider paramylon [Test Product D], for which the “activity in the in vitro screen (overall)” value in the data set with human immune cells was “essentially no activity”; with human immune cells (listed as Sample D) it was “essentially inactive”. Further, the solubility in water entry in “Solubility in water” is listed as “completely insoluble”. Also, the “number of CD69/CD25 double-positive lymphocytes” value in data set [1] is reported as “only exerted minor, if any, effects”. Besides, the “CD69 expression on monocytes” value with monocytes was “only exerted minor, if any, effects”. The “CD69 expression on non-T non-NK cells” value in the data set on non-T non-NK lymphocytes (dose not specified (FIG. 19)) is on record as “only exerted minor, if any, effects”. Besides, the “CD25 expression on non-T non-NK cells” value in the data set on non-T non-NK lymphocytes (FIG. 21 shows CD25) is listed as “only exerted minor, if any, effects”. Moreover, in the data set on T-cells (at lower doses), the “CD25 expression on T-cells” value is “varying degrees of suppressing CD25 expression”. The “CD69 expression on T-cells” value in the data set on T-cells (figures show T-cells) is “only exerted minor effects”.
